| SMILES | glass transition temperature |
| --- | --- |
| *C(=O)c1ccc2c(c1)C(=O)N(c1ccc(-c3cc(C(C)(C)C)c(Oc4ccc(N5C(=O)c6ccc(*)cc6C5=O)cc4C(F)(F)F)c(C(C)(C)C)c3)cc1)C2=O (repeat unit) | 362.00 °C |
| *c1ccc(-c2nnc(*)o2)c(OCC)c1 (repeat unit) | 231.00 °C |
| *CC(*)(C)C(=O)OCCCCCCCCCCOc1ccc(/N=N/c2ccc(OC)cc2)cc1 (repeat unit) | 62.00 °C |
| */C(=C(/*)c1ccc[c]([Ge]([CH3])([CH3])[CH3])c1)c1ccccc1 (repeat unit) | 200.00 °C |
| *CCCCCCOC(=O)CCCCC(=O)O* (repeat unit) | -69.00 °C |
| *OC(COC(*)=O)COC(C)(C)C (repeat unit) | 18.00 °C |
| *Oc1ccc(C(c2ccccc2)c2ccc(OC(*)=S)cc2)cc1 (repeat unit) | 179.00 °C |
| *CC(*)(C)C(=O)OCC(=O)N1CCOCC1 (repeat unit) | 128.00 °C |
| *CC(C)(C)COC(=O)c1ccc(-c2ccc(C(=O)O*)cc2)cc1 (repeat unit) | 101.00 °C |
| *c1ccc(C(=O)OCCCCCCOc2ccc(/C=C3\CCC/C(=C\c4ccc(OCCCCCCOC(=O)c5ccc(-c6nnc(*)o6)cc5)cc4)C3=O)cc2)cc1 (repeat unit) | 71.00 °C |
| *Oc1ccc(S(=O)(=O)c2ccc(Oc3ccc(NC(=O)c4cccc(C(=O)Nc5ccc(*)cc5)c4)cc3)cc2)cc1 (repeat unit) | 260.00 °C |
| *Oc1ccc(CC(NC(=O)CCc2ccc(OC(=O)CCC(*)=O)cc2)C(=O)OC(C)C)cc1 (repeat unit) | 82.00 °C |
| *c1ccc(*)c(C(=O)c2ccc(C)cc2)c1 (repeat unit) | 202.00 °C |
| *c1ccc(Oc2ccc(-c3ccc(Oc4ccc(N5C(=O)c6ccc(Oc7ccc(C8(c9ccc(Oc%10ccc%11c(c%10)C(=O)N(*)C%11=O)cc9)CCC(c9ccccc9)CC8)cc7)cc6C5=O)cc4)cc3C)c(C)c2)cc1 (repeat unit) | 226.00 °C |
| *c1ccc(-c2cnc3cc4ncc(*)nc4cc3n2)cc1 (repeat unit) | 392.00 °C |
| *OC(CC)C(*)=O (repeat unit) | 15.00 °C |
| *c1ccc(Cc2ccc(NC(=O)c3cccc(-c4nc5cc(-c6ccc7[nH]c(-c8cccc(C(=O)Nc9ccc(Cc%10ccc(-n%11c(=O)c%12cc%13c(=O)n(*)c(=O)c%13cc%12c%11=O)cc%10)cc9)c8)nc7c6)ccc5[nH]4)c3)cc2)cc1 (repeat unit) | 277.00 °C |
| *c1cccc(OCCCCCCCCCCCOC(=O)c2ccc(C(=O)OCCCCCCCCCCCOc3cccc(-c4nnc(*)s4)c3)cc2)c1 (repeat unit) | 22.00 °C |
| *CCCCCCCCN1C(=O)c2ccc(C(c3ccc4c(c3)C(=O)N(*)C4=O)(C(F)(F)F)C(F)(F)F)cc2C1=O (repeat unit) | 155.00 °C |
| *CCSS* (repeat unit) | -27.00 °C |
| *C#Cc1cccc(C#C[SiH](*)C)c1 (repeat unit) | 72.00 °C |
| *CCCCCCOC(=O)Nc1cccc(P(=O)(c2ccccc2)c2cccc(NC(=O)O*)c2)c1 (repeat unit) | 30.00 °C |

| SMILES | glass transition temperature |
| --- | --- |
| *c1ccc(Oc2ccc(-n3c(=O)c4cc5c(=O)n(*)c(=O)c5cc4c3=O)cc2-c2ccccc2)cc1 (repeat unit) | 329.00 °C |
| *CC(CC)(CC)CO* (repeat unit) | -30.00 °C |
| *c1ccc(Oc2ccc(C(c3ccc(Oc4ccc(N5C(=O)c6ccc(Oc7ccc(Sc8ccc(Oc9ccc%10c(c9)C(=O)N(*)C%10=O)cc8)cc7)cc6C5=O)cc4)cc3)(C(F)(F)F)C(F)(F)F)cc2)cc1 (repeat unit) | 217.50 °C |
| *C(=O)Nc1ccc(C(c2ccc(NC(=O)c3ccc4c(c3)C(=O)N(c3ccc(Oc5cccc6c(Oc7ccc(N8C(=O)c9ccc(*)cc9C8=O)cc7)cccc56)cc3)C4=O)cc2)(C(F)(F)F)C(F)(F)F)cc1 (repeat unit) | 283.00 °C |
| *CC(c1ccccc1)C1C(=O)N(CCCN(CC)c2ccc(/N=N/c3ccc([N+](=O)[O-])cc3Cl)c(C)c2)C(=O)C1* (repeat unit) | 149.00 °C |
| *Oc1ccc(/N=N/c2ccc(Cc3ccc(/N=N/c4ccc(OC(=O)c5ccc(C(*)=O)cc5)cc4)cc3[N+](=O)[O-])c([N+](=O)[O-])c2)cc1 (repeat unit) | 198.00 °C |
| *C(=O)NCCNC(=O)c1ncn(C)c1* (repeat unit) | 189.00 °C |
| *CC(*)(CCC(C)C(=O)OC)C(=O)OC (repeat unit) | 34.00 °C |
| *C(=O)OCCN(CCOC(=O)c1ccc2c(c1)C(=O)N(c1cccc(N3C(=O)c4ccc(*)cc4C3=O)c1)C2=O)c1ccc(/N=N/c2ccc(C)cc2)cc1 (repeat unit) | 171.00 °C |
| *c1ccc(Oc2ccc(C(=O)c3cccc(-c4cccc(C(=O)c5ccc(Oc6ccc(-c7nc(-c8cccc(-c9nc(*)c(-c%10ccccc%10)[nH]9)c8)[nH]c7-c7ccccc7)cc6)cc5)c4)c3)cc2)cc1 (repeat unit) | 250.00 °C |
| *c1ccc(Oc2ccc(N3C(=O)c4ccc(P(=O)(c5ccccc5)c5ccc6c(c5)C(=O)N(*)C6=O)cc4C3=O)cc2)cc1 (repeat unit) | 318.00 °C |
| *c1ccc(Oc2ccc(N3C(=O)c4ccc(Oc5ccc6c(c5)C(=O)N(c5ncc(*)s5)C6=O)cc4C3=O)cc2)cc1 (repeat unit) | 300.00 °C |
| *[Se]c1c(Cl)c(Cl)c(*)c(Cl)c1Cl (repeat unit) | 104.00 °C |
| *C(=O)c1ccc2c(c1)C(=O)N(c1ccc(Cc3ccc(Cc4ccc(N5C(=O)c6ccc(*)cc6C5=O)cc4)cc3)cc1)C2=O (repeat unit) | 347.00 °C |
| *OC(COC(=O)c1ccc(C(*)=O)c2ccccc12)COc1ccc(/N=N/c2ccc(C#N)cc2)cc1 (repeat unit) | 117.00 °C |
| *CC(*)c1ccc(COCCC(F)(F)C(F)(F)C(F)(F)C(F)(F)C(F)(F)C(F)(F)F)cc1 (repeat unit) | 18.00 °C |
| *CCCCCCOC(=O)CCCCCNC(=O)CCCCC(=O)NCCCCCC(=O)O* (repeat unit) | -7.00 °C |
| *c1ccc(Oc2ccc(C(=O)c3ccc(Oc4ccc(N5C(=O)c6ccc(Oc7cccc(Oc8ccc9c(c8)C(=O)N(*)C9=O)c7)cc6C5=O)cc4)cc3)cc2)cc1 (repeat unit) | 201.00 °C |
| *c1ccc2c(c1)C(=O)N(c1c(C)c(C)c(N3C(=O)c4ccc(C(*)(C(F)(F)F)C(F)(F)F)cc4C3=O)c(C)c1C)C2=O (repeat unit) | 420.00 °C |
| *CCCCCCCCCCNC(=O)c1ccc(Cc2ccc(C(=O)N*)cc2)cc1 (repeat unit) | 140.00 °C |
| *CC(F)(F)C1(F)C(*)CC(O)(C(F)(F)F)C1(F)F (repeat unit) | 152.00 °C |
| *CC(F)(F)C(F)(F)COC(=O)NCC(F)(F)C(F)(F)C(F)(F)C(F)(F)CNC(=O)O* (repeat unit) | 38.00 °C |

| SMILES | glass transition temperature |
| --- | --- |
| *C(=O)Nc1ccc(-c2ccc(N3C(=O)CC(N4C(=O)c5ccc(*)cc5C4=O)C3=O)cc2)cc1 (repeat unit) | 219.00 °C |
| *c1ccc(-c2cc(CCCCCCCC)c(-c3ccc(-c4ccc(-c5sc(-c6ccc([Si](C)(C)[Si](C)(C)[Si](C)(C)[Si](C)(C)[Si](C)(C)[Si](C)(C)[Si](C)(C)[Si](*)(C)C)s6)cc5CCCCCCCC)s4)s3)s2)s1 (repeat unit) | 13.00 °C |
| *Oc1ccc(CC(NC(=O)CCc2ccc(OC(=O)CCCC(*)=O)cc2)C(=O)OC(C)C)cc1 (repeat unit) | 68.00 °C |
| *c1nnc(-c2cc(CCCCCCCCCC)c(-c3sc(-c4nnc(-c5cc(OCCCCCCCC)c(*)cc5OCCCCCCCC)o4)cc3CCCCCCCCCC)s2)o1 (repeat unit) | 53.80 °C |
| *C(=O)c1ccc2c(c1)C(=O)N(c1ccc(Oc3ccc(N4C(=O)c5ccc(*)cc5C4=O)cc3Br)c(Br)c1)C2=O (repeat unit) | 296.00 °C |
| *c1ccc(Cc2ccc(NC(=O)c3cccc(Oc4ccc5c(c4)C(=O)N(*)C5=O)c3)cc2)cc1 (repeat unit) | 243.00 °C |
| *O[Si](C)(C)O[Si](C)(C)O[Si](C)(C)O[Si](C)(C)OC1=C(*)c2cccc3cccc1c23 (repeat unit) | -43.00 °C |
| *CC(*)(C)C(=O)Oc1ccc(C(=O)/C=C/c2ccc(Cl)cc2)cc1 (repeat unit) | 127.00 °C |
| *Oc1ccc(OC(C)COCCCCCCCOc2ccc(-c3ccc(C(*)=O)cc3)cc2)c([N+](=O)[O-])c1 (repeat unit) | 50.00 °C |
| *CC(*)c1cc(Cl)ccc1Cl (repeat unit) | 108.00 °C |
| *CC(COc1ccc(-c2ccc(C#N)cc2)cc1)O* (repeat unit) | 94.2 °C |
| *Oc1ccc(CC(NC(=O)CCc2ccc(OC(=O)CCC(C)CC(*)=O)cc2)C(=O)OC)cc1 (repeat unit) | 53.00 °C |
| *C(=O)c1ccc(-c2ccc(C(C)(C)c3ccc(-c4ccc(C(=O)c5ccc6c(c5)C(=O)N(c5ccc(Cc7ccc(N8C(=O)c9ccc(*)cc9C8=O)cc7)cc5)C6=O)cc4)cc3)cc2)cc1 (repeat unit) | 216.00 °C |
| *CC[CH2][Sn]([CH3])([CH3])[CH2]CCOC(=O)C(CCCCCCCCOc1ccc(-c2ccc(OCc3ccc(C#N)cc3)cc2)cc1)C(=O)O* (repeat unit) | 22.00 °C |
| *N1CCOC1(*)CC (repeat unit) | 55.00 °C |
| *CCCCCC(*)CCCC (repeat unit) | -69.00 °C |
| */C=C/C1CC(*)C(C(=O)OCCCCCCCCCCCOc2ccc(-c3ccc(C#N)cc3)cc2)C1C(=O)OCCCCCCCCCCCOc1ccc(-c2ccc(C#N)cc2)cc1 (repeat unit) | 23.10 °C |
| *Oc1ccc(C2(c3ccc(OC(*)=S)cc3)CCCCC2)cc1 (repeat unit) | 155.00 °C |
| *CCCCCCCCOc1ccc(/C=C2\CCC/C(=C\c3ccc(O*)c(OC)c3)C2=O)cc1OC (repeat unit) | 72.00 °C |
| *CC(*)Cc1ccc(C)cc1 (repeat unit) | 65.00 °C |
